Source: patent publication US6489351B1, “Condensed 4,5,6,7-tetrahydrobenzo[C]thiophenes as enhancer for cell differentation induction factor action” (Takeda Chemical Industries, Ltd., priority 1996, dated 2002)

System: not given
Assay: not given
Conditions: not given

Structure (SMILES) | melting point
CCOP(=O)(Cc1ccc(NC(=O)c2cc3c(s2)-c2c(SC)sc(C(=O)Nc4ccc(CP(=O)(OCC)OCC)cc4)c2CC3)cc1)OCC | 262 to 263 °C
CCCSc1sc(C(=O)OCC)c2c1-c1nc(-c3ccccc3)sc1CC2 [Example 3, ethyl 4,5-dihydro-2-phenyl-8-propylthiothieno[3,4-e]benzothiazole-6-carboxylate] | 125 to 126 °C
CCOC(=O)c1oc(SC)c2c1CCc1sc(-c3ccccc3)nc1-2 [Example 4, ethyl 4,5-dihydro-8-methylthio-2-phenylfuro[3,4-e]benzothiazole-6-carboxylate] | 170 to 171 °C
CCOC(=O)c1sc(SC)c2c1CCc1nc(-c3ccccc3)[nH]c1-2 [Example 21, ethyl 4,5-dihydro-8-methylthio-2-phenylthieno[3,4-e]benzimidazole-6-carboxylate] | 218 to 219 °C
CCOC(=O)c1sc(SC)c2c1CCc1sc(C)nc1-2 [Example 1, ethyl 4,5-dihydro-2-methyl-8-methylthiothieno[3,4-e]benzothiazole-6-carboxylate] | 143 to 144 °C
CCOC(=O)CSC1=C(C=O)CCc2c(C(=O)OCC)sc(SC)c21 [Example 70, ethyl 4-ethoxycarbonylmethylthio-5-formyl-6,7-dihydro-3-methylthiobenzo[c]thiophene-1-carboxylate] | 102 to 103 °C
CCOC(=O)c1sc(SC)c2c1CCC(NC(C)=O)C2=O (stereo not shown) [Example 11, ethyl 5-acetylamino-4,5,6,7-tetrahydro-3-methylthio-4-oxobenzo[c]thiophene-1-carboxylate] | 215 to 216 °C
CCOC(=O)c1sc(SC)c2c1CCc1nc(C)oc1-2 [Example 17, ethyl 4,5-dihydro-2-methyl-8-methylthiothieno[3,4-g]benzoxazole-6-carboxylate] | 131 to 132 °C
CCNC(=O)c1sc(SC)c2c1CCc1nc(C)oc1-2 [Example 55] | 175 to 176 °C
CCOC(=O)c1sc(SC)c2c1CCc1sc(-c3ccccc3)nc1-2 [Example 2, ethyl 4,5-dihydro-8-methylthio-2-phenylthieno[3,4-e]benzothiazole-6-carboxylate] | 153 to 154 °C
Cc1nc2c(o1)-c1c(SC(C)C)sc(C(=O)O)c1CC2 [Example 33, 4,5-dihydro-8-isopropylthio-2-methylthieno[3,4-g]benzoxazole-6-carboxylic acid] | 277 to 278 °C
CON(C)C(=O)c1sc(SC)c2c1CCc1sc(-c3ccccc3)nc1-2 [Example 93, N-methoxy-N-methyl-4,5-dihydro-8-methylthio-2-phenylthieno[3,4-e]benzothiazole-6-carboxamide] | 157 to 158 °C
CSc1sc(C(N)=O)c2c1-c1sc(-c3ccccc3)cc1CC2 [Example 76, 4,5-dihydro-8-methylthio-2-phenylbenzo[2,1-c:3,4-b′]dithiophene-6-carboxamide] | 192 to 193 °C
CCOC(=O)c1sc(SC(C)C)c2c1CCC(NC(C)=O)C2=O (stereo not shown) [Example 12, ethyl 5-acetylamino-4,5,6,7-tetrahydro-3-isopropylthio-4-oxobenzo[c]thiophene-1-carboxylate] | 170 to 171 °C
CSc1sc(C(=O)O)c2c1-c1sc(-c3ccccc3)cc1CC2 [Example 75, 4,5-dihydro-8-methylthio-2-phenylbenzo[2,1-c:3,4-b′]dithiophene-6-carboxylic acid] | 215 to 217 °C
CSc1sc(C(=O)O)c2c1-c1nc(C)sc1CC2 [Example 22, 4,5-dihydro-2-methyl-8-methylthiothieno[3,4-e]benzothiazole-6-carboxylic acid] | 273 to 274 °C
CSc1sc(C(=O)O)c2c1-c1nc(-c3ccccc3)sc1CC2 [Example 23, 4,5-dihydro-8-methylthio-2-phenylthieno[3,4-e]benzothiazole-6-carboxylic acid] | 255 to 256 °C (dec.)
CCOC(=O)c1cc2c(s1)-c1c(SC)sc(C(=O)OCC)c1CC2 [Example 71, diethyl 4,5-dihydro-8-methylthiobenzo[2,1-c:3,4-b′]dithiophene-2,6-dicarboxylate] | 107 to 108 °C
CCOC(=O)c1sc(SC)c2c1CCC(C=O)=C2Cl [Example 69, ethyl 4-chloro-5-formyl-6,7-dihydro-3-methylthiobenzo[c]thiophene-1-carboxylate] | 79 to 80 °C
CSc1sc(C(=O)Nc2cccnc2)c2c1-c1nc(-c3ccccc3)sc1CC2 [Example 92, N-(3-pyridyl)-4,5-dihydro-8-methylthio-2-phenylthieno[3,4-e]benzothiazole-6-carboxamide] | 230 to 231 °C
CCOC(=O)c1sc(SC(C)C)c2c1CCc1nc(C)oc1-2 [Example 18, ethyl 4,5-dihydro-8-isopropylthio-2-methylthieno[3,4-g]benzoxazole-6-carboxylate] | 62 to 63 °C
CCNC(=O)c1sc(SC)c2c1CCc1sc(-c3ccccc3)nc1-2 [Example 50, N-ethyl-4,5-dihydro-8-methylthio-2-phenylthieno[3,4-e]benzothiazole-6-carboxamide] | 211 to 212 °C
CCCSc1sc(C(=O)O)c2c1-c1nc(-c3ccccc3)sc1CC2 [Example 24, 4,5-dihydro-2-phenyl-8-propylthiothieno[3,4-e]benzothiazole-6-carboxylic acid] | 236 to 237 °C (dec.)
CCCSc1sc(C(=O)OCC)c2c1C(=O)C(NC(=O)CC)CC2 (stereo not shown) [Example 13, ethyl 4,5,6,7-tetrahydro-4-oxo-5-propionylamino-3-propylthiobenzo[c]thiophene-1-carboxylate] | 191 to 192 °C
CSc1sc(C(=O)NCc2ccncc2)c2c1-c1nc(-c3ccccc3)sc1CC2 [Example 91, N-(4-pyridylmethyl)-4,5-dihydro-8-methylthio-2-phenylthieno[3,4-e]benzothiazole-6-carboxamide] | 189 to 190 °C
CCCSc1sc(C(N)=O)c2c1-c1nc(-c3ccccc3)sc1CC2 [Example 37, 4,5-dihydro-2-phenyl-8-propylthiothieno[3,4-e]benzothiazole-6-carboxamide] | 203 to 204 °C
CSc1sc(C(N)=O)c2c1-c1[nH]c(-c3ccccc3)nc1CC2 [Example 68, 4,5-dihydro-8-methylthio-2-phenylthieno[3,4-e]benzimidazole-6-carboxamide] | 206 to 207 °C
CSc1sc(C(=O)NCc2ccc3c(c2)OCO3)c2c1-c1nc(-c3ccccc3)sc1CC2 [Example 90, N-(3,4-methylenedioxybenzyl)-4,5-dihydro-8-methylthio-2-phenylthieno[3,4-e]benzothiazole-6-carboxamide] | 236 to 237 °C

System: stromal cells prepared from the femoral marrow of a normal rat
Assay: Osteogenesis-promoting action: alkaline phosphatase activity in rat femoral marrow stromal cells
Format: cell-based
Conditions: compound 10^−5 M; mean±SE; control 694.9 ± 22.7 (Experiment 1), 608.4 ± 20.9 (Experiment 2)
Experimental: Using stromal cells prepared from the femoral marrow of a normal rat, alkaline phosphatase activity was determined as an index of osteogenesis. Specifically, stromal cells, prepared from the femoral marrow of a 7-week-old male Sprague-Dawley rat by the method of Maniatopoulos et al. [Cell Tissue Research, Vol. 254, p. 317 (1988)], were cultured in an α-MEM (minimum essential medium) solution containing both dexamethasone (10^−7 M) and β-glycerophosphoric acid (10^−2 M) to obtain calcified osteoid tissue. […] After washing with phosphate buffer, the cells were homogenized with 0.2% Nonidet P-40 and centrifuged at 3,000 rpm for 10 minutes. The resulting supernatant was assayed for alkaline phosphatase activity by the method of Lowry et al. [Journal of Biological Chemistry, Vol. 207, p. 19 (1954)]. The values obtained are given in mean±SE in Table 1. The data-were statistically analyzed by Student's t-test.

Structure (SMILES) | Alkaline Phosphatase Activity (nmol p-nitrophenol/min/well)
CSc1sc(C(N)=O)c2c1-c1oc(C)nc1CC2 [Example 46] | 1,916.8 ± 26.3 nmol p-nitrophenol/min/well
CCNC(=O)c1sc(SC)c2c1CCc1sc(-c3ccccc3)nc1-2 [Example 50, N-ethyl-4,5-dihydro-8-methylthio-2-phenylthieno[3,4-e]benzothiazole-6-carboxamide] | 1,463 ± 33.4 nmol p-nitrophenol/min/well

Same assay, conditions: compound 10^−6 M; mean±SE; Experiment 3, control 63.1 ± 5.0

Structure (SMILES) | Alkaline Phosphatase Activity (nmol p-nitrophenol/min/well)
CON(C)C(=O)c1sc(SC)c2c1CCc1sc(-c3ccccc3)nc1-2 [Example 93, N-methoxy-N-methyl-4,5-dihydro-8-methylthio-2-phenylthieno[3,4-e]benzothiazole-6-carboxamide] | 159.9 ± 17.5 nmol p-nitrophenol/min/well
CSc1sc(C(=O)Nc2cccnc2)c2c1-c1nc(-c3ccccc3)sc1CC2 [Example 92, N-(3-pyridyl)-4,5-dihydro-8-methylthio-2-phenylthieno[3,4-e]benzothiazole-6-carboxamide] | 111.4 ± 2.1 nmol p-nitrophenol/min/well
CSc1sc(C(=O)NCc2ccncc2)c2c1-c1nc(-c3ccccc3)sc1CC2 [Example 91, N-(4-pyridylmethyl)-4,5-dihydro-8-methylthio-2-phenylthieno[3,4-e]benzothiazole-6-carboxamide] | 123.2 ± 5.7 nmol p-nitrophenol/min/well
CSc1sc(C(=O)NCc2ccc3c(c2)OCO3)c2c1-c1nc(-c3ccccc3)sc1CC2 [Example 90, N-(3,4-methylenedioxybenzyl)-4,5-dihydro-8-methylthio-2-phenylthieno[3,4-e]benzothiazole-6-carboxamide] | 102.9 ± 7.3 nmol p-nitrophenol/min/well
